Measured values from patent publication US7928140B2, “Benzothiazole PI3 kinase modulators for cancer treatment” (Amgen Inc., priority 2007, dated 2011).
Like-named read-outs stand apart in the source and are kept apart here.

Key:
[1] = tested on: phosphorylation of Serine 473 in Akt, HCT 116 human colon carcinoma cells; assay: Cell-based phospho-AKT Ser473 assay (MSD sandwich immunoassay, IGF-1 stimulated); conditions: Homo sapiens
Protocol: This assay determines the ability of test compounds to inhibit the phosphorylation of […] in Akt using a MSD based sandwich immunoassay (Meso Scale Detection, catalogue # N411CAB-1). […] Prior to the assay cells were detached from the culture flask with trypsin, and re-suspended in complete media to give a final concentration of 1.6×10^5 cells per ml. Aliquots (100 μl) of the HCT116 cell suspension were seeded into each well of a 96 well tissue culture plate (Corning Incorporated COSTAR, catalogue#3595) to give a final density of 16,000 cells per well. Cells were then incubated overnight at 37° C. The following day the cells were treated with serially diluted test compounds and incubated for 2 hours at 37° C. […] As a maximum response control, wells contained 0.5% DMSO in place of test compound. The plates were mixed at 700 rpm for 2 min to ensure even distribution of the test compound and incubated for 2 hours at 37° C. Cells were then stimulated with insulin-like growth factor 1 (Sigma, product #13769) at final concentration of 100 ng/ml for 15 minutes at 37° C. The media was then removed and the cells treated with 80 μl cell-lysis buffer (MSD) containing a cocktail of protease and phosphatase inhibitors for one hour at 4° C. […] The detection antibody was removed and plates were then washed four times with 200 μl per well of Tris wash buffer. An aliquot of 150 μl of diluted MSD read buffer was then applied to each well, and the electrochemiluminescent signal was measured using a MSD SECTORTM plate reader. This instrument measures the intensity of emitted light to determine a quantitative measure of phosphorylated Akt in each well. The dose-response data obtained with each compound were analyzed and the IC50 inhibition of Akt phosphorylation at Ser473 calculated.

[2] = target: T1, PI3K β (Homo sapiens, UniProt P42338); assay: In vitro PI3 kinase enzyme assay (beta), ATP loss, bioluminescence; format: biochemical; conditions: read-out: PI3Kβ ATP loss IC50;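 further: purified p110β/p85 heterodimer with PtdIns(4,5)P2 as acceptor, incubated at room temperature, leftover ATP read by luminescence, inhibition scaled to compound-free wells with and without enzyme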
T1 construct: Full length p110 subunits of PI3K α, β and δ, N-terminally labeled with polyHis tag; polyHis (N); made in house; host or cells: Sf9 insect cells (baculovirus)

[3] = target: T2, PI3K α (Homo sapiens, UniProt P42336); assay: In vitro PI3 kinase enzyme assay (alpha), ATP loss, bioluminescence; format: biochemical; conditions: read-out: PI3Kα ATP loss IC50;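 further: purified p110α/p85 heterodimer acting on PtdIns(4,5)P2 at room temperature, remaining ATP read by luminescence, inhibition scaled between compound-free wells with and without enzyme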
T2 construct: Full length p110 subunits of PI3K α, β and δ, N-terminally labeled with polyHis tag; polyHis (N); made in house; host or cells: Sf9 insect cells (baculovirus)
Protocol: Full length p110 subunits of PI3K α, β and δ, N-terminally labeled with polyHis tag, were co-expressed with p85 in baculovirus expression vectors in sf9 insect cells. P110/p85 heterodimers were purified by sequential Ni-NTA, Q-HP, and Superdex-100 chromatography. Purified α, β and δ isozymes were stored at −20° C. in 20 mM Tris, pH 8, 0.2M NaCl, 50% glycerol, 5 mM DTT, 2 mM Na cholate.
PI3K enzyme assays (alpha, beta, delta and gamma) were performed in 25 mL with the above final concentrations of components in white polypropylene plates (Costar catalogue #3355). Phosphatidyl inositol phosphoacceptor, PtdIns(4,5)P2 (eg. P4508) was obtained from Echelon Biosciences. The ATPase activity of the alpha and gamma isozymes was not greatly stimulated by PtdIns(4,5)P2 under these conditions and was therefore omitted from the assay of these isozymes. Test compounds were dissolved in DMSO and diluted with three-fold serial dilutions. The compound in DMSO (1 μL) was added per test well, and the inhibition relative to reactions containing no compound, with and without enzyme was determined. After assay incubation at RT, the reaction was stopped and residual ATP determined by addition of an equal volume of a commercial ATP bioluminescence kit (Perkin Elmer EasyLite) according to the manufacturer's instructions, and detected using an Analyst GT luminometer.

[4] = HCT-116, HCT 116 cells, read-out: HCT 116 pAKT IC50

T1 sequence (P42338 whole entry): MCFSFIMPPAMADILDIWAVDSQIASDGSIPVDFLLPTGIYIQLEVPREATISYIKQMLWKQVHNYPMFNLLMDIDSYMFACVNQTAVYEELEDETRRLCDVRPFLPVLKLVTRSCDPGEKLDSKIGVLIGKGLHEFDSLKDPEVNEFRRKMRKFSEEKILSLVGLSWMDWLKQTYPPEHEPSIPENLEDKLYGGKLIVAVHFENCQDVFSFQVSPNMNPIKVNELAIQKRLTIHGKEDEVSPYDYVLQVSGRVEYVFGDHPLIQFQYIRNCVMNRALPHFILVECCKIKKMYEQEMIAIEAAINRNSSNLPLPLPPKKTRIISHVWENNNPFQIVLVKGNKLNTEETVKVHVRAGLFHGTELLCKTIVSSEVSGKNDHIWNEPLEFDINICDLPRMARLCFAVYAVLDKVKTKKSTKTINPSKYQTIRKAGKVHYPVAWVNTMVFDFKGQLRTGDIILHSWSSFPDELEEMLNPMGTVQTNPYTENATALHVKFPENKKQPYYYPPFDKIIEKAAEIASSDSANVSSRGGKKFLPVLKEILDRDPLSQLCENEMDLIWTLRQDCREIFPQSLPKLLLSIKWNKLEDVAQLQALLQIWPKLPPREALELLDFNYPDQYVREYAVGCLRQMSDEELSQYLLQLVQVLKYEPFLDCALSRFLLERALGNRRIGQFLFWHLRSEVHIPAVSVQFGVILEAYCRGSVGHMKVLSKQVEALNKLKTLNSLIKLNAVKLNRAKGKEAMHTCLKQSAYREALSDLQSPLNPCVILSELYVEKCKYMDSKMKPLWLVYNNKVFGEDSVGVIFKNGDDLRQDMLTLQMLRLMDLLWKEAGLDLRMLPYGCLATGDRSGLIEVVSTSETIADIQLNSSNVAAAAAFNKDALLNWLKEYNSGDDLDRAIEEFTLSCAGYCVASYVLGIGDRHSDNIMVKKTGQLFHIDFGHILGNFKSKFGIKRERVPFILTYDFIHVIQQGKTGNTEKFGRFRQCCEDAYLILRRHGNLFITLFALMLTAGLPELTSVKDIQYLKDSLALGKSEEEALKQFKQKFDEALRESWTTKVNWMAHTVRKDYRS
T1 sequence (P27986 whole entry partner): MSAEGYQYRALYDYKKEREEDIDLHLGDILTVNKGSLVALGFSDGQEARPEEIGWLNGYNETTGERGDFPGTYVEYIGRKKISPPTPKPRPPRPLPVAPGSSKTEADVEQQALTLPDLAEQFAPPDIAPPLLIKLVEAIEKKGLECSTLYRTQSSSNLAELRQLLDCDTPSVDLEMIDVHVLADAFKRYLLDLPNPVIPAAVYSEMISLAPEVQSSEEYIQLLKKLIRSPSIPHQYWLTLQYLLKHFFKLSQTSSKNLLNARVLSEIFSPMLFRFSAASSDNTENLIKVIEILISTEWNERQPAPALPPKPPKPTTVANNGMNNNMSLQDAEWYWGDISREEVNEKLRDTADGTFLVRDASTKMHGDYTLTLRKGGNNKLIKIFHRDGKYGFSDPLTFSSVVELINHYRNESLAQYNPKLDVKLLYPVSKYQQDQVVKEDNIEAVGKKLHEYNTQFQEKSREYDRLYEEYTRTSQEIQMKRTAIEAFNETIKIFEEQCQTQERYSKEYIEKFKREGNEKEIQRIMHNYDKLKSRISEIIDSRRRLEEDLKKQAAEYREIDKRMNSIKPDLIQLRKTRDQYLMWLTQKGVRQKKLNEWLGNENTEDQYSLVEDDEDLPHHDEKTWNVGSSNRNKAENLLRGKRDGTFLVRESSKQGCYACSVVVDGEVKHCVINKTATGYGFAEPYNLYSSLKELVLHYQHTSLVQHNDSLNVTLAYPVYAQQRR
T2 sequence (P42336 whole entry, species assumed): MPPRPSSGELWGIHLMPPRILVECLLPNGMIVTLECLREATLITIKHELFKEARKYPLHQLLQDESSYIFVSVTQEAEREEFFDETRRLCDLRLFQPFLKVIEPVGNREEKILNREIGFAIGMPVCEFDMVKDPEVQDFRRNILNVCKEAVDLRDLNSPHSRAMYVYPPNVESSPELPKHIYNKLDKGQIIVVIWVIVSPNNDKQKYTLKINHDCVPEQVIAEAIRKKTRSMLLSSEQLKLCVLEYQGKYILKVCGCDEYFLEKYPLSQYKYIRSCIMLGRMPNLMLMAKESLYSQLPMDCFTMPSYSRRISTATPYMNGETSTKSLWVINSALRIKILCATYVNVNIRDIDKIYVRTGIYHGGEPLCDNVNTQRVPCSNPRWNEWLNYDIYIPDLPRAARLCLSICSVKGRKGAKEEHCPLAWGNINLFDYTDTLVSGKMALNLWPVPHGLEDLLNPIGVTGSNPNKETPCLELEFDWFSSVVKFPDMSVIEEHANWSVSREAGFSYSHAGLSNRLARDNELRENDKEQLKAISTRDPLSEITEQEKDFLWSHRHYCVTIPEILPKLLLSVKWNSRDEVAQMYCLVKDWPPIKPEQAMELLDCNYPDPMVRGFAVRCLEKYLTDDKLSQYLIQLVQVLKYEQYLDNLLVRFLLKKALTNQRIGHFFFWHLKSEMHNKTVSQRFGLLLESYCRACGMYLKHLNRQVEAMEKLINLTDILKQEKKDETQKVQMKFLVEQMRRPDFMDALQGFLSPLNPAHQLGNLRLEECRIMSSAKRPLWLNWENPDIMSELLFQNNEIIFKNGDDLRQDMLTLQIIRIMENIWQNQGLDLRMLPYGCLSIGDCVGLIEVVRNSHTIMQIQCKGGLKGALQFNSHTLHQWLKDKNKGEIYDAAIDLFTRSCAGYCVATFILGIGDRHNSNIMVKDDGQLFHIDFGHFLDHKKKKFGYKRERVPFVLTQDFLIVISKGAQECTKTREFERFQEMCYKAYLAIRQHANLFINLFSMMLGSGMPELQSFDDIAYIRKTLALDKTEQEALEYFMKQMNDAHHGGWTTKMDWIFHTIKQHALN
T2 sequence (P27986 whole entry partner, species assumed): as the sequence (P27986 whole entry partner) above

IC50 [1, 4] | IC50 [2] | IC50 [3] | Structure (SMILES) | IC50 ([1]; HCT-116, read-out: HCT 116 pAKT IC50)
151 nM | 17.1 nM | 10.9 nM | CC(C)(O)c1ccc(S(=O)(=O)Nc2cc(-c3ccc4nc(N)sc4c3)cnc2Cl)cc1 [Example 324, N-(5-(2-amino-1,3-benzothiazol-6-yl)-2-chloro-3-pyridinyl)-4-(1-hydroxy-1-methylethyl)benzenesulfonamide] | –
616 nM | 2900 nM | 311 nM | CN(C)CC(=O)Nc1nc2ccc(-c3cnc(Cl)c(N(C)C)c3)cc2s1 [Example 275, N-(6-(6-Chloro-5-(dimethylamino)pyridin-3-yl)benzo[d]thiazol-2-yl)-2-(dimethylamino)acetamide] | –
388 nM | 32.2 nM | 12.1 nM | CC(=O)Nc1nc2ccc(-c3cncc(NS(=O)(=O)c4ccc(C(C)O)cc4)c3)cc2s1 (stereo not drawn) [Example 259, N-(6-(5-(4-(1-hydroxyethyl)phenylsulfonamido)pyridin-3-yl)benzo[d]thiazol-2-yl)acetamide] | –
6.7 nM | 13 nM | 6.4 nM | CC(=O)Nc1nc2ccc(-c3cnc(C)c(NS(=O)(=O)c4cccc(C(F)(F)F)c4)c3)cc2s1 [Example 113, N-(6-(6-methyl-5-(((3-(trifluoromethyl)phenyl)sulfonyl)amino)-3-pyridinyl)-1,3-benzothiazol-2-yl)acetamide] | –
16.9 nM | 9.1 nM | 5.5 nM | CC(=O)Nc1nc2ccc(-c3cnc(C)c(NS(=O)(=O)c4ccccc4F)c3)cc2s1 [Example 112, N-(6-(5-(((2-fluorophenyl)sulfonyl)amino)-6-methyl-3-pyridinyl)-1,3-benzothiazol-2-yl)acetamide] | –
157 nM | 159 nM | 8.5 nM | CC(=O)Nc1nc2ccc(-c3cnc(C(F)(F)F)c(O)c3)cc2s1 [Example 302, N-(6-(5-hydroxy-6-(trifluoromethyl)pyridin-3-yl)benzo[d]thiazol-2-yl)acetamide] | –
7 nM | 35.8 nM | 10.3 nM | CC(=O)Nc1nc2ccc(-c3cnc(Cl)c(NS(=O)(=O)N4CCCCC4)c3)cc2s1 [Example 316, N-(6-(6-chloro-5-((1-piperidinylsulfonyl)amino)-3-pyridinyl)-1,3-benzothiazol-2-yl)acetamide] | –
31.4 nM | 10.6 nM | 3.8 nM | CC(=O)Nc1nc2ccc(-c3cnc(C)c(NS(=O)(=O)c4ccccc4)c3)cc2s1 [Example 110, N-(6-(6-methyl-5-(phenylsulfonamido)pyridin-3-yl)benzo[d]thiazol-2-yl)acetamide] | –
> 5000 nM | 1620 nM | 230 nM | CC(C)Nc1cc(-c2ccc3nc(NC(=O)C[C@@H]4CCCO4)sc3c2)cnc1Cl [Example 151, N-(6-(6-chloro-5-((1-methylethyl)amino)-3-pyridinyl)-1,3-benzothiazol-2-yl)-2-((2S)-tetrahydro-2-furanyl)acetamide] | –
16.8 nM | 9.6 nM | 6.8 nM | CC(=O)Nc1nc2ccc(-c3cnc(Cl)c(NS(=O)(=O)c4ccc(Cl)s4)c3)cc2s1 [Example 193, N-(6-(6-chloro-5-(2-chlorothiophene-5-sulfonamido)pyridin-3-yl)benzo[d]thiazol-2-yl)acetamide] | –
3.9 nM | 7.7 nM | 6.4 nM | CC(=O)Nc1nc2ccc(-c3cnc(Cl)c(NS(=O)(=O)c4ccc(C)cc4)c3)cc2s1 [Example 189, N-(6-(6-chloro-5-(4-methylphenylsulfonamido)pyridin-3-yl)benzo[d]thiazol-2-yl)acetamide] | –
636 nM | > 40000 nM | 73.9 nM | COc1ccc(-c2ccc3nc(NC(C)=O)sc3c2)cn1 [Example 242, N-(6-(6-methoxypyridin-3-yl)benzo[d]thiazol-2-yl)acetamide] | –
2960 nM | 3790 nM | 53.8 nM | CCOc1cc(-c2ccc3nc(NC(C)=O)sc3c2)cnc1Cl [Example 239, N-(6-(6-chloro-5-ethoxypyridin-3-yl)benzo[d]thiazol-2-yl)acetamide] | –

The next lines start with the molecule.

Structure (SMILES) | IC50 [1, 4] | IC50 [2] | IC50 [3] | IC50 ([1]; HCT-116, read-out: HCT 116 pAKT IC50)
CC(=O)Nc1nc2ccc(-c3cncc(Sc4ccccc4F)n3)cc2s1 [Example 130, N-(6-(6-((2-fluorophenyl)sulfanyl)-2-pyrazinyl)-1,3-benzothiazol-2-yl)acetamide] | 442 nM | 65 nM | 39 nM | –
CC(=O)Nc1nc2ccc(-c3cncc(NS(=O)(=O)c4cccc(C(F)(F)F)c4)c3)cc2s1 [Example 197, N-(6-(5-(3-(trifluoromethyl)phenylsulfonamido)pyridin-3-yl)benzo[d]thiazol-2-yl)acetamide] | 79.8 nM | 11.9 nM | 9.4 nM | –
CC(=O)Nc1nc2ccc(-c3ccnc(OCc4ccccc4)n3)cc2s1 [Example 3, N-(6-(2-(benzyloxy)-4-pyrimidinyl)-1,3-benzothiazol-2-yl)acetamide] | 3510 nM | 240 nM | 95.6 nM | –
CC(=O)Oc1cc(-c2ccc3ncsc3c2)cnc1Cl [Example 335, 5-(1,3-benzothiazol-6-yl)-2-chloro-3-pyridinyl acetate] | 44 nM | 113 nM | 15.6 nM | –
COc1ccc(S(=O)(=O)c2cccc(-c3ccc4nc(NC(C)=O)sc4c3)n2)cc1 [Example 68, N-(6-(6-(4-Methoxyphenylsulfonyl)pyridin-2-yl)benzo[d]thiazol-2-yl)acetamide] | 664 nM | 676 nM | 86.5 nM | –
CC(=O)Nc1nc2ccc(-c3ccnc(OCCCc4ccccc4)n3)cc2s1 [Example 4, N-(6-(2-(3-phenylpropoxy)-4-pyrimidinyl)-1,3-benzothiazol-2-yl)acetamide] | 2370 nM | 386 nM | 151 nM | –
CC(=O)Nc1nc2ccc(-c3ccnc(OCc4ccc5c(c4)OCO5)n3)cc2s1 [Example 40, N-(6-(2-(1,3-benzodioxol-5-ylmethoxy)-4-pyrimidinyl)-1,3-benzothiazol-2-yl)acetamide] | 1050 nM | 25100 nM | 83.4 nM | –
CC(=O)Nc1nc2ccc(-c3ccnc(NCc4ccccc4)n3)cc2s1 [Example 49, N-(6-(2-(benzylamino)-4-pyrimidinyl)-1,3-benzothiazol-2-yl)acetamide] | 15300 nM | 1450 nM | 418 nM | –
CC(=O)Nc1nc2ccc(-c3ccnc(OCc4ccc5ncccc5c4)n3)cc2s1 [Example 22, N-(6-(2-(6-quinolinylmethoxy)-4-pyrimidinyl)-1,3-benzothiazol-2-yl)acetamide] | > 40000 nM | > 40000 nM | 124 nM | –
CC(=O)Nc1nc2ccc(-c3ccnc(OCc4cccnc4)n3)cc2s1 [Example 2, N-(6-(2-(3-pyridinylmethoxy)-4-pyrimidinyl)-1,3-benzothiazol-2-yl)acetamide] | 789 nM | > 40000 nM | 452 nM | –
CC(=O)Nc1nc2ccc(-c3ccnc(OCCCn4ccnn4)n3)cc2s1 [Example 20, N-(6-(2-(3-(1H-1,2,3-triazol-1-yl)propoxy)-4-pyrimidinyl)-1,3-benzothiazol-2-yl)acetamide] | 1930 nM | 5240 nM | 266 nM | –
CC(=O)Nc1nc2ccc(-c3ccnc(OCCc4ccccc4)n3)cc2s1 [Example 7, N-(6-(2-(2-phenylethoxy)-4-pyrimidinyl)-1,3-benzothiazol-2-yl)acetamide] | – | 2610 nM | 226 nM | > 25000 nM
CC(=O)Nc1nc2ccc(-c3ccnc(NS(=O)(=O)c4ccc(C)cc4)n3)cc2s1 [Example 83, N-(6-(2-(((4-methylphenyl)sulfonyl)amino)-4-pyrimidinyl)-1,3-benzothiazol-2-yl)acetamide] | 408 nM | 62 nM | 34.3 nM | –
CC(=O)Nc1nc2ccc(-c3cncc(N(C)S(=O)(=O)c4ccc(Cl)c(Cl)c4)c3)cc2s1 [Example 221, N-(6-(5-(3,4-dichloro-N-methylphenylsulfonamido)pyridin-3-yl)benzo[d]thiazol-2-yl)acetamide] | 320 nM | 2100 nM | 79.2 nM | –
Nc1nc2ccc(-c3cnc(Cl)c(NS(=O)(=O)c4cccc(OC(F)F)c4)c3)cc2s1 [Example 307, N-(5-(2-amino-1,3-benzothiazol-6-yl)-2-chloro-3-pyridinyl)-3-(difluoromethoxy)benzenesulfonamide] | 115 nM | 17.3 nM | 6.7 nM | –
CC(=O)Nc1nc2ccc(-c3cncc(N(C)S(=O)(=O)c4ccc(C(C)(C)C)cc4)c3)cc2s1 [Example 223, N-(6-(5-(4-tert-butyl-N-methylphenylsulfonamido)pyridin-3-yl)benzo[d]thiazol-2-yl)acetamide] | 417 nM | 3820 nM | 53.5 nM | –
